Measurements: ChEMBL document CHEMBL1201862, “PubChem BioAssay data set” (2004)
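Step 1: Grow cells in 96-well plates. Step 2: Expose to compound for 48 hours at 5 concentrations. Step 3: Interpolate endpoints linearly; if unreached, use highest concentration. Here, GI50 denotes the concentration required for 50% inhibition of growth.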 Calls of active or inactive are those of the source. Rule as the data show it: active = GI50 up to about 1.1 µM and inactive = higher. Where a SMILES comes first, the peptide text is derived from it.

How the values were obtained:
Test in all cases: NCI tumour cell line growth inhibition, 48 h
[1] = system: HCC 2998
[2] = system: HCT-116
[3] = system: SF-539
[4] = system: SK-OV-3
[5] = system: KM12
[6] = system: K562
[7] = system: ACHN
[8] = system: SN12C
[9] = system: CAKI-1
[10] = system: M14
[11] = system: SF-295
[12] = system: RPMI-8226
[13] = system: SNB-75
[14] = system: HOP-62
[15] = system: MOLT-4
[16] = system: SK-MEL-28
[17] = system: NCI-H522
[18] = system: MDA-N
[19] = system: PC-3

Measured: GI50

O=c1c(Cl)cc2nc3ccccc3sc-2c1Cl
inactive: [1] 14.1 µM | [2] 16.2 µM | [3] 16.7 µM | [4] 21 µM | [5] 17.6 µM | [6] 6.85 µM | [7] 15.9 µM | [8] 17 µM | [9] 22.1 µM | [10] 11.7 µM | [11] 16.9 µM | [12] 4.25 µM | [13] 16.2 µM | [14] 26.1 µM | [15] 3.61 µM | [16] 18.1 µM | [17] 12.4 µM

CC(C)=CC1C(COC(=O)c2ccccc2Cl)C1(C)C (stereo unspecified)
inactive: [2] 49.3 µM | [5] 30.4 µM | [6] 34 µM | [7] 42.8 µM | [8] 32.6 µM | [9] 41.6 µM | [10] 75 µM | [11] 35.5 µM | [18] 29.6 µM | [19] 41.3 µM | [14] 38.4 µM | [15] 24.3 µM | [16] > 100 µM | [17] 20.4 µM

O=C1NC(=S)NC(=O)C1C(c1ccc(O)cc1)C1C(=O)NC(=S)NC1=O.c1ccncc1
inactive: [2] > 100 µM | [5] > 100 µM | [6] > 100 µM | [7] > 100 µM | [8] > 100 µM | [9] > 100 µM | [10] > 100 µM | [11] > 100 µM | [18] > 100 µM | [19] > 100 µM | [12] > 100 µM | [14] > 100 µM | [15] > 100 µM | [16] > 100 µM | [17] > 100 µM

CC12CCC(=O)C=C1CCC1C2CCC2(C)C(C(=O)Cn3cnc4c(=S)nc[nH]c43)CCC12 (stereo unspecified)
inactive: [2] 35.9 µM | [3] 55.5 µM | [4] 33.5 µM | [5] 37.9 µM | [6] 48.3 µM | [7] 40 µM | [8] 67.8 µM | [9] 34 µM | [10] 27.5 µM | [11] 28.2 µM | [18] 39.2 µM | [19] 63.7 µM | [12] 25.5 µM | [13] 15.5 µM | [14] 18.2 µM | [15] 21.6 µM | [16] > 100 µM | [17] 23.4 µM

CC(=O)OC1=C2CC[C@@H]3C(CC[C@@]4(C)C3CC[C@@H]4OC(C)=O)[C@@]2(C)CC(C#N)C1=O (stereo partly specified)
inactive: [1] 13.3 µM | [2] 27.6 µM | [3] 30.3 µM | [4] 18.3 µM | [5] 30.3 µM | [6] 22.6 µM | [7] 20.8 µM | [8] 28.6 µM | [10] 25.1 µM | [11] 32.8 µM | [12] 12 µM | [13] 14.5 µM | [14] 8.67 µM | [15] 23.4 µM | [16] 30.3 µM

Cc1cc2nc3[nH]c4c(Cl)cc(Cl)cc4c3nc2cc1C
inactive: [2] > 100 µM | [3] 36.5 µM | [4] > 100 µM | [5] > 100 µM | [6] > 100 µM | [7] > 100 µM | [8] > 100 µM | [9] > 100 µM | [10] > 100 µM | [11] > 100 µM | [18] > 100 µM | [19] > 100 µM | [12] > 100 µM | [13] 9.12 µM | [14] > 100 µM | [15] 74 µM | [16] > 100 µM | [17] > 100 µM

CN(Cc1ccccc1)C(=S)S [SODIUM BENZYL(METHYL)CARBAMODITHIOATE]
inactive: [1] > 100 µM | [2] 19.2 µM | [4] > 100 µM | [5] 56.1 µM | [6] 34.1 µM | [7] 53.5 µM | [8] 52.4 µM | [9] 37.4 µM | [10] 23.3 µM | [11] 34 µM | [18] 70.6 µM | [13] > 100 µM | [14] 43.2 µM | [15] 20 µM | [16] 69.2 µM | [17] 27.8 µM

CCCCNC(=S)N/N=C/c1cccc(C)n1
inactive: [2] 20.7 µM | [3] 29.7 µM | [4] 59.8 µM | [5] 31.3 µM | [6] 13.2 µM | [7] 23 µM | [8] 30.1 µM | [9] 33.9 µM | [10] 25.1 µM | [11] 33.2 µM | [18] 42.8 µM | [19] 47 µM | [12] 25.5 µM | [13] 67.6 µM | [14] 23.9 µM | [15] 10.7 µM | [16] 48.5 µM | [17] 18.6 µM

NNc1nncc2[nH]cnc12
inactive: [2] > 100 µM | [3] > 100 µM | [5] > 100 µM | [6] > 100 µM | [7] > 100 µM | [8] > 100 µM | [9] > 100 µM | [10] > 100 µM | [11] > 100 µM | [18] > 100 µM | [19] > 100 µM | [12] > 100 µM | [13] > 100 µM | [14] > 100 µM | [15] > 100 µM | [16] > 100 µM

COC(=O)[C@@](NC(=O)OCc1ccccc1)([C@H](C)O)C(F)(F)F
inactive: [1] > 100 µM | [2] > 100 µM | [4] > 100 µM | [5] > 100 µM | [6] > 100 µM | [7] > 100 µM | [9] > 100 µM | [10] > 100 µM | [11] > 100 µM | [19] > 100 µM | [12] > 100 µM | [13] > 100 µM | [14] > 100 µM | [15] > 100 µM | [16] > 100 µM | [17] > 100 µM

O=C1c2ccccc2-c2c1c1ccccc1c(=O)n2Cc1ccccc1
inactive: [2] > 100 µM | [3] 57.1 µM | [4] > 100 µM | [5] > 100 µM | [6] > 10 µM | [8] > 100 µM | [9] 56.8 µM | [10] > 100 µM | [11] 93.1 µM | [18] > 100 µM | [19] > 100 µM | [12] > 100 µM | [13] 56.4 µM | [14] 38.6 µM | [15] > 100 µM | [16] > 100 µM | [17] 54.3 µM

CC(=O)NC(CS)C(=O)NC(CO)C(=O)NC(CO)C(=O)NC(Cc1c[nH]c2ccccc12)C(=O)N1CCCC1C(=O)NC(CO)C(=O)NC(Cc1c[nH]c2ccccc12)C(=O)NC(Cc1c[nH]cn1)C(=O)NC(CO)C(=O)NC(Cc1c[nH]c2ccccc12)C(=O)NCC(=O)NCC(=O)NC(CC(=O)O)C(=O)NC(CCC(N)=O)C(=O)NC(CCCCN)C(=O)NC(Cc1ccccc1)C(=O)NC(CCCNC(=N)N)C(=O)NC(CCCCN)C(N)=O (stereo unspecified) (Ac-CSSWPSWHSWGGDQKFRK-NH2; configuration not given here)
inactive: [2] > 25 µM | [3] > 25 µM | [4] > 25 µM | [5] > 25 µM | [6] > 25 µM | [7] > 25 µM | [8] > 25 µM | [9] > 25 µM | [10] > 25 µM | [11] > 25 µM | [18] > 25 µM | [19] > 25 µM | [12] > 25 µM | [13] > 25 µM | [14] > 25 µM | [15] > 25 µM | [16] > 25 µM | [17] > 25 µM

C/C=C/C/C=C/CCC(=O)C1OC1C(N)=O (stereo unspecified)
inactive: [1] 17.3 µM | [2] 15 µM | [3] 15.2 µM | [4] 35.1 µM | [5] 15.3 µM | [6] 15.9 µM | [7] 15.2 µM | [8] 19 µM | [9] 16.3 µM | [10] 15.8 µM | [11] 15 µM | [19] 15.4 µM | [13] 14.3 µM | [14] 2.52 µM | [15] 13.2 µM | [16] 15.4 µM | [17] 12.4 µM

NC(CCC(=O)Nc1ccc(O)cc1)C(=O)O (stereo unspecified)
inactive: [2] > 100 µM | [4] > 100 µM | [5] > 100 µM | [6] > 100 µM | [7] > 100 µM | [8] > 100 µM | [9] > 100 µM | [10] > 100 µM | [12] > 100 µM | [13] > 100 µM | [14] > 100 µM | [15] > 100 µM | [16] > 100 µM | [17] > 100 µM

Cn1c(=O)c2nc(CSCc3ccccc3)[nH]c2n(C)c1=O
inactive: [2] > 100 µM | [3] > 100 µM | [4] > 100 µM | [5] > 100 µM | [6] 78 µM | [7] > 100 µM | [8] 80.5 µM | [9] > 100 µM | [10] > 100 µM | [11] 85.7 µM | [18] > 100 µM | [19] > 100 µM | [12] 67.6 µM | [13] > 100 µM | [14] > 100 µM | [15] > 100 µM | [16] > 100 µM | [17] 35.6 µM

N#CC1(c2nc3ccccc3o2)C(=O)C(=O)N(c2ccc(Cl)c(Cl)c2)C(=O)C1=O
inactive: [1] > 100 µM | [5] > 100 µM | [6] 71 µM | [7] > 100 µM | [8] > 100 µM | [9] > 100 µM | [10] > 100 µM | [11] > 100 µM | [12] > 100 µM | [13] > 100 µM | [14] > 100 µM | [15] 30.3 µM | [16] > 100 µM | [17] > 100 µM
